In one experiment the target is T1, M2 muscarinic receptor (Rattus norvegicus, UniProt P10980).
T1 construct: Submandibular glands and heart were isolated and placed in ice cold homogenising buffer; from tissue; host or cells: rat heart membrane homogenate
T1 sequence (P10980 1-466): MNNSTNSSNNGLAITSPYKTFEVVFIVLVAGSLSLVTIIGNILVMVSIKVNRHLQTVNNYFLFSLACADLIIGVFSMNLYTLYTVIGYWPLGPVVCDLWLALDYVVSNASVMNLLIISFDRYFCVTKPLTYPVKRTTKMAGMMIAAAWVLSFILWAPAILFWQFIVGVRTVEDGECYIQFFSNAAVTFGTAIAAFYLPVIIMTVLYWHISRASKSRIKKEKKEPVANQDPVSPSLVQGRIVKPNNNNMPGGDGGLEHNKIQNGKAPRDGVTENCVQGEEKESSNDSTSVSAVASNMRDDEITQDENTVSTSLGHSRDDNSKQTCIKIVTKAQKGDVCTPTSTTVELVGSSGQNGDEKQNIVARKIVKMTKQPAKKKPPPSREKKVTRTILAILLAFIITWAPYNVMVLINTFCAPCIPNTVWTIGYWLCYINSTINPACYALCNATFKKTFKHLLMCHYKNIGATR
In words: [3H]-N-methylscopolamine radioligand binding assay, rat heart membranes.

Another experiment deals with T2, M3 muscarinic receptor (Rattus norvegicus, UniProt P08483).
T2 construct: Submandibular glands and heart were isolated and placed in ice cold homogenising buffer; from tissue; host or cells: rat submandibular gland membrane homogenate
T2 sequence (P08483 whole entry): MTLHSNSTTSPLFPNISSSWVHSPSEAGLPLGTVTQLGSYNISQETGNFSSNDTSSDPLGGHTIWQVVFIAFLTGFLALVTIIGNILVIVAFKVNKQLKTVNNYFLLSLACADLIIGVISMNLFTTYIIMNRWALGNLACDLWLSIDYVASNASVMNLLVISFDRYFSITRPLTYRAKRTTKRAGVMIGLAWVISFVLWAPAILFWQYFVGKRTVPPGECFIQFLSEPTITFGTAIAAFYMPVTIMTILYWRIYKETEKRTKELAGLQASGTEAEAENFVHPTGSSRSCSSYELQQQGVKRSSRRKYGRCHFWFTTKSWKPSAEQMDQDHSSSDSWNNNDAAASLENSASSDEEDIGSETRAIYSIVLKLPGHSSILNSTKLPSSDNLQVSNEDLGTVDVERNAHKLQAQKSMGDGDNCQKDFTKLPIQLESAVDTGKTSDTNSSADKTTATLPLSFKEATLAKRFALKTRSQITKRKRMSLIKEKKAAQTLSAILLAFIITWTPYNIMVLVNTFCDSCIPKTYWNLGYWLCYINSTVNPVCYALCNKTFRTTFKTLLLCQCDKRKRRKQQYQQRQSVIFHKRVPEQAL
Kind of experiment: [3H]-N-methylscopolamine radioligand binding assay, rat submandibular gland membranes. Also on record: Receptor Binding Assay Selectivity: reference not given here.

The test system of a further experiment is isolated rat bladder. In words: tissue or blood. It is filed as cell-based. To be noted: rat bladder strips, antagonism of carbachol contraction.
Where [1] appears, read: Table III, rat heart, [3H]NMS, read-out: M2 Ki (nm).
[2] abbreviates: Table III, rat submandibular gland, [3H]NMS, read-out: M3 Ki (nm).
Setting [3] is: Table III, read-out: Rat Bladder pKB (converted).
Where [4] appears, read: Table III, rat heart, [3H]NMS, read-out: M2 pKi (converted).
Setting [5] is: Table II, rat heart, [3H]NMS, read-out: Receptor Binding Assay Ki (nM) M2.
Where [6] appears, read: Table II, rat submandibular gland, [3H]NMS, read-out: Receptor Binding Assay Ki (nM) M 3.
Setting [7] is: Table II, read-out: Functional Assay KB.
The mark [8] stands for this setting: Table III, rat submandibular gland, [3H]NMS, read-out: M3 Pki (converted).
The mark [9] stands for this setting: Receptor Binding Assay Ki (nM) M 3.

Like-named read-outs stand apart in the source and are kept apart here.

As for `O=C(NC1C2CN(Cc3c(F)cccc3F)CC21)C(O)(c1ccccc1)C1CCCCC1` (stereo not drawn) [Compound No. 25, (1α,5α,6α)-6-N-(3-azabicyclo[3.1.0]hexyl-3-(2,6-difluorobenzyl))-2-cyclohexyl-2-hydroxy-2-phenyl acetamide], the Ki is above 1000 nM at M2 muscarinic receptor (setting [1]) and 1700 nM at M3 muscarinic receptor (setting [2]). Further, the Kb with isolated rat bladder (setting [3]) is 288 nM.

Consider `C#CCN1CC2C(C1)C2NC(=O)C(O)(c1ccccc1)C1CCCCC1` (stereo not drawn) [Compound No. 35, (1α,5α,6α)-6-N-(3-azabicyclo[3.1.0]hexyl-3-(2-propargyl))-2-cyclohexyl-2-hydroxy-2-phenyl acetamide], for which the Ki was 1180 nM on M2 muscarinic receptor (setting [1]), above 1000 nM on M2 muscarinic receptor (setting [4]) and 429 nM at M3 muscarinic receptor (setting [2]). Also, the Kb in the experiment on isolated rat bladder (setting [3]) was 24.5 nM.

Turning to `O=C(N[C@H]1[C@@H]2CN(C3CC3)C[C@@H]21)C(O)(c1ccccc1)C1CCCCC1` (stereo partly drawn) [Compound No. 38, (1α,5α,6α)-6-N-(3-azabicyclo[3.1.0]hexyl-3-cyclopropyl)-2-cyclohexyl-2-hydroxy-2-phenyl acetamide], the Ki at M2 muscarinic receptor (setting [1]) was above 1000 nM; at M3 muscarinic receptor (setting [2]) it was 1560 nM. In the experiment with isolated rat bladder (setting [3]), the Kb is 288 nM.

For `CC(C)=CCCN1C[C@@H]2[C@H](C1)[C@H]2NC(=O)C(O)(c1ccccc1)C1CCCCC1` (stereo partly drawn) [Compound No. 41, (1α,5α,6α)-6-N-(3-azabicyclo[3.1.0]hexyl-3-(4-methyl-3-pentenyl))-2-cyclohexyl-2-hydroxy-2-phenyl acetamide], the Ki on M2 muscarinic receptor (setting [5]) is 2940 nM; on M2 muscarinic receptor (setting [1]), 2940 nM; on M3 muscarinic receptor (setting [6]), 47 nM; at M3 muscarinic receptor (setting [2]) it was 47 nM. The “Receptor Binding Assay Selectivity” value at M3 muscarinic receptor (Table II, ratio M2 Ki / M3 Ki) is 62.64. In addition, the Kb in the experiment with isolated rat bladder (setting [7]) is 32.4 nM; with isolated rat bladder (setting [3]), 20.4 nM.

As for `O=C(N[C@H]1[C@@H]2CN(Cc3ccc4c(c3)OCO4)C[C@@H]21)C(O)(c1ccccc1)C1CCCCC1` (stereo partly drawn) [Compound No. 42, (1α,5α,6α)-6-N-(3-azabicyclo[3.1.0]hexyl-3-(3,4-methylenedioxybenzyl))-2-cyclohexyl-2-hydroxy-2-phenyl acetamide], the Ki at M2 muscarinic receptor (setting [1]) was 2200 nM; at M3 muscarinic receptor (setting [2]), 55 nM; on M3 muscarinic receptor (setting [8]) it was 56.2 nM. For the same compound, in the experiment with isolated rat bladder (setting [3]), the Kb was 75.9 nM.

On to `Cc1ccc(S(=O)(=O)NC(=O)N2C[C@@H]3[C@H](C2)[C@H]3NC(=O)C(O)(c2ccccc2)C2CCCCC2)cc1` (stereo partly drawn) [Compound No. 49, (1α,5α,6α)-6-N-(3-azabicyclo[3.1.0]hexyl-3-(4-methylphenyl-1-sulphonamide)urea)-2-cyclohexyl-2-hydroxy-2-phenyl acetamide], for which the Ki at M2 muscarinic receptor (setting [1]) was above 1000 nM; on M3 muscarinic receptor (setting [2]), 1000 nM. The Kb with isolated rat bladder (setting [3]) was 631 nM.

As to `Cc1ccc(C(O)(C(=O)NC2C3CN(Cc4ccccc4)CC32)C2CCCCC2)cc1` (stereo not drawn) [Compound No. 50, (1α,5α,6α)-6-N-(3-azabicyclo[3.1.0]hexyl-3-benzyl)-2-cyclohexyl-2-hydroxy-2-(4-methylphenyl)acetamide], the results for the Ki at M2 muscarinic receptor (setting [1]) and on M3 muscarinic receptor (setting [2]) were above 1000 nM and 1200 nM, respectively. In addition, the Kb with isolated rat bladder (setting [3]) was 138 nM.

Consider `O=C(N[C@H]1[C@@H]2CN(Cc3ccccc3)C[C@@H]21)C(O)(c1ccc(Oc2ccccc2)cc1)C1CCCCC1` (stereo partly drawn) [Compound No. 52, (1α,5α,6α)-6-N-(3-azabicyclo[3.1.0]hexyl-3-benzyl)-2-cyclohexyl-2-hydroxy-2-(4-phenoxyphenyl)acetamide], for which the Ki on M2 muscarinic receptor (setting [1]) was above 1000 nM; on M3 muscarinic receptor (setting [2]), 370 nM. Moreover, the Kb with isolated rat bladder (setting [3]) was 3090 nM.

`COc1ccc(C(O)(C(=O)NC2C3CN(CCC=C(C)C)CC32)C2CCCCC2)cc1` (stereo not drawn) [Compound No. 57, (1α,5α,6α)-6-N-(3-azabicyclo[3.1.0]hexyl-3-(4-methyl-3-pentenyl))-2-cyclohexyl-2-hydroxy-2-(4-methoxyphenyl)acetamide]: the results for the Ki at M2 muscarinic receptor (setting [1]) and at M3 muscarinic receptor (setting [2]) were above 1000 nM and 240 nM, respectively. The Kb with isolated rat bladder (setting [3]) is 1860 nM.

On to `O=C(N[C@H]1[C@@H]2CN(Cc3ccccc3)C[C@@H]21)C(O)(c1ccccc1)C1CCCC1` (some centres unmarked) [Compound No. 64], for which the Ki is 3000 nM at M2 muscarinic receptor (setting [1]), 2510 nM on M2 muscarinic receptor (setting [4]) and 68 nM on M3 muscarinic receptor. The Kb in the experiment on isolated rat bladder (setting [3]) is 27.5 nM.

Take `CC(C)=CCCN1CC2C(C1)C2NC(=O)C(O)(c1ccccc1)C1CCCC1` (stereo not drawn) [Compound No. 65, (1α,5α,6α)-6-N-(3-azabicyclo[3.1.0]hexyl-3-(4-methyl-3-pentenyl))-2-cyclopentyl-2-hydroxy-2-phenyl acetamide]: the Ki at M2 muscarinic receptor (setting [5]) is 1370 nM; on M2 muscarinic receptor (setting [1]), 1370 nM; on M2 muscarinic receptor (setting [4]), 1350 nM; on M3 muscarinic receptor (setting [6]) it was 33 nM; at M3 muscarinic receptor (setting [2]), 33 nM; on M3 muscarinic receptor (setting [8]), 29.5 nM. The “Receptor Binding Assay Selectivity” value at M3 muscarinic receptor (Table II, ratio M2 Ki / M3 Ki) is on record as 41.52. Besides, the Kb is 4 nM with isolated rat bladder (setting [7]) and 3.98 nM with isolated rat bladder (setting [3]).

In the case of `O=C(NC1C2CN(CCc3ccc4c(c3)OCO4)CC21)C(O)(c1ccccc1)C1CCCC1` (centres unmarked) [Compound No. 66], the Ki is 237 nM on M2 muscarinic receptor (setting [5]); 182 nM on M2 muscarinic receptor (setting [1]); 115 nM on M2 muscarinic receptor (setting [4]); 18.4 nM at M3 muscarinic receptor (M3 Ki (nm)); 15.5 nM on M3 muscarinic receptor (M3 Pki); 18.4 nM at M3 muscarinic receptor (setting [9]). Moreover, at M3 muscarinic receptor, the “Receptor Binding Assay Selectivity” value worked out at 12.88. Further, the Kb in the experiment with isolated rat bladder (setting [7]) is 5 nM; in the experiment with isolated rat bladder (setting [3]), 3.24 nM.

Turning to `O=C(NC1C2CN(CCc3ccccc3)CC21)C(O)(c1ccccc1)C1CCCC1` (stereo not drawn) [Compound No. 67, (1α,5α,6α)-6-N-(3-azabicyclo[3.1.0]hexyl-3-(2-phenylethyl))-2-cyclopentyl-2-hydroxy-2-phenyl acetamide], the values for the Ki at M2 muscarinic receptor (setting [1]) and on M3 muscarinic receptor (setting [8]) were 1420 nM and 38.9 nM, respectively. The Kb with isolated rat bladder (setting [3]) was 38 nM.

With `O=C(NC1C2CN(Cc3ccccc3)CC21)C(O)(c1ccccc1)C1CCCCCC1` (stereo not drawn) [Compound No. 72, (1α,5α,6α)-6-N-(3-azabicyclo[3.1.0]hexyl-3-benzyl)-2-cycloheptyl-2-hydroxy-2-phenyl acetamide], the Ki on M2 muscarinic receptor (M2 Ki (nm)) is 1530 nM; at M3 muscarinic receptor (setting [8]) it was 20.9 nM. Also, the Kb in the experiment with isolated rat bladder (setting [3]) was 66.1 nM.

For `CC(C)=CCCN1C[C@@H]2[C@H](C1)[C@H]2NC(=O)[C@](O)(c1ccccc1)C1CCCC1` [Compound No. 81, (2R)-(1α,5α,6α)-6-N-(3-azabicyclo[3.1.0]hexyl-3-(4-methyl-3-pentenyl))-2-cyclopentyl-2-hydroxy-2-phenyl acetamide], the Ki at M2 muscarinic receptor (setting [5]) is 564 nM; on M2 muscarinic receptor (setting [1]) it was 564 nM; on M2 muscarinic receptor (setting [4]), 525 nM; on M3 muscarinic receptor (setting [6]), 12.4 nM; on M3 muscarinic receptor (setting [2]), 12.4 nM; on M3 muscarinic receptor (setting [8]) it was 11.5 nM. In addition, the “Receptor Binding Assay Selectivity” value on M3 muscarinic receptor (Table II, ratio M2 Ki / M3 Ki) is recorded as 45.48. Besides, the Kb in the experiment on isolated rat bladder (setting [7]) is 7.95 nM; in the experiment with isolated rat bladder (setting [3]), 11.2 nM.

Turning to `O=C(N[C@H]1[C@@H]2CN(CCc3ccc4c(c3)OCO4)C[C@@H]21)[C@](O)(c1ccccc1)C1CCCC1` [Compound No. 82, (2R)-(1α,5α,6α)-6-N-(3-azabicyclo[3.1.0]hexyl-3-(3,4-methylenedioxyphenyl)ethyl)-2-cyclopentyl-2-hydroxy-2-phenyl acetamide], the Ki at M2 muscarinic receptor (setting [5]) was 646 nM; on M2 muscarinic receptor (setting [1]) it was 646 nM; on M3 muscarinic receptor (M3 Ki (nm)) it was 11.7 nM; on M3 muscarinic receptor (setting [9]), 11.7 nM. For the same compound, the “Receptor Binding Assay Selectivity” value at M3 muscarinic receptor is on record as 5. Also, the Kb in the experiment on isolated rat bladder (setting [7]) was 9.12 nM; with isolated rat bladder (setting [3]), 0.759 nM.
